Counter-ions that a name gives are not always drawn.
target: T1, wild-type human ALK (cytoplasmic domain, amino acids 1058-1620, N-terminal GST fusion) (Homo sapiens, UniProt Q9UM73); test: ALK Inhibition in Enzyme Assay (Lance TR-FRET kinase assay); assay type: biochemical; conditions: not given
T1 construct: The cytoplasmic domain (amino acids 1058-1620) of wild-type human ALK; GST (N); made in house; host or cells: SF9 insect cells
Summary of the method: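 TR-FRET read-out (Eu-W1024 PT66 anti-phosphotyrosine plus streptavidin-allophycocyanin, 320 nm excitation) quantified biotinylated peptide phosphorylation by the purified kinase. Reaction ran 90 minutes at room temperature before quenching with 20 mM EDTA in Tris pH 7.5 buffer with NaCl, BSA and Tween-20.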

T1 sequence (Q9UM73 1058-1620): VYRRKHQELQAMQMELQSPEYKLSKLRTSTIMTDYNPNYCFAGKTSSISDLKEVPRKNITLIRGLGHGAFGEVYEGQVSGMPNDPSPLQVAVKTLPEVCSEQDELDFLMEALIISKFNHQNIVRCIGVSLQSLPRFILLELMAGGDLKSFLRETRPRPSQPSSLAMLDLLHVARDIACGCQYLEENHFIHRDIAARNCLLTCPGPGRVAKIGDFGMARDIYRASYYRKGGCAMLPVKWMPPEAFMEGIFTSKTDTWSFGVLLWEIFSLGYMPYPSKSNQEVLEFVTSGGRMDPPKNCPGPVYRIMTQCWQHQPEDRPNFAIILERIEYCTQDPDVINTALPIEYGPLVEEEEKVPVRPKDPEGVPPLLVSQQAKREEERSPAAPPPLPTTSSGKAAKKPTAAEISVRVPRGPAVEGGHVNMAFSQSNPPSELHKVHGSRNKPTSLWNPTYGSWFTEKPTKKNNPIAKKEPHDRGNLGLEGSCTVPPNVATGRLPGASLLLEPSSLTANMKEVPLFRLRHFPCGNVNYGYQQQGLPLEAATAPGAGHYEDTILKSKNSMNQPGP

SMILES	IC50
O=C(/N=c1\[nH]c2ccc(CN3CCCCC3)cc2n1[C@H]1CC[C@@H](CO)CC1)c1ccc(F)cc1 [Example 37, (E)-4-Fluoro-N-(1-(cis-4-(hydroxymethyl)cyclohexyl)-6-(piperidin-1-ylmethyl)-1H-benzo[d]imidazol-2(3H)-ylidene)benzamide]	0.1 to 1 µM
N#C[C@]1(c2ccccn2)C[C@H](n2/c(=N/C(=O)c3ccc(F)cc3)[nH]c3cnc(OCCN4CCCCC4)cc32)C1 [Example 241, (E)-N-(1-(cis-3-Cyano-3-(pyridin-2-yl)cyclobutyl)-6-(2-(piperidin-1-yl)ethoxy)-1H-imidazo[4,5-c]pyridin-2(3H)-ylidene)-4-fluorobenzamide]	0.1 to 1 µM
CC(C)NC(=O)[C@H]1CC[C@@H](n2/c(=N/C(=O)c3ccc(C(F)(F)F)cc3)[nH]c3cnc(OCCN4CCCCC4)cc32)CC1 [Example 102, (E)-N-(1-(cis-4-(Isopropylcarbamoyl)cyclohexyl)-6-(2-(piperidin-1-yl)ethoxy)-1H-imidazo[4,5-c]pyridin-2(3H)-ylidene)-4-(trifluoromethyl)benzamide]	0.1 to 1 µM
O=C(/N=c1\[nH]c2ccc(CN3CCOCC3)cc2n1[C@H]1CC[C@@H](C(=O)N2CCOCC2)CC1)c1ccc(F)cc1 [Example 202, (E)-4-Fluoro-N-(1-(cis-4-(morpholine-4-carbonyl)cyclohexyl)-6-(morpholinomethyl)-1H-benzo[d]imidazol-2(3H)-ylidene)benzamide]	0.1 to 1 µM
O=C(/N=c1\[nH]c2ccc(CN3CCCCC3)cc2n1[C@H]1CC[C@@H](C(=O)Nc2nccs2)CC1)c1ccc(F)cc1 [Example 49, (E)-4-Fluoro-N-(6-(piperidin-1-ylmethyl)-1-(cis-4-(thiazol-2-ylcarbamoyl)cyclohexyl)-1H-benzo[d]imidazol-2(3H)-ylidene)benzamide]	0.05 to 0.1 µM
CNCC(=O)N1CCC(n2/c(=N/C(=O)c3ccccc3)[nH]c3cnc(OCCN4CCCCC4)cc32)CC1 [Example 75, (E)-N-(1-(1-(2-(Methylamino)acetyl)piperidin-4-yl)-6-(2-(piperidin-1-yl)ethoxy)-1H-imidazo[4,5-c]pyridin-2(3H)-ylidene)benzamide]	0.1 to 1 µM
CC(C)NC(=O)[C@H]1CC[C@@H](n2/c(=N/C(=O)c3ccc(F)cc3)[nH]c3ccc(CN4CCC[C@H]4C(=O)O)cc32)CC1 [Example 54, (S)-1-(((E)-2-(4-Fluorobenzoylimino)-3-(cis-4-(isopropylcarbamoyl)cyclohexyl)-2,3-dihydro-1H-benzo[d]imidazol-5-yl)methyl)pyrrolidine-2-carboxylic acid hydrochloride]	< 0.05 µM
COC(=O)Nc1nc2ccc(CN3CCCCC3)cc2n1[C@H]1CC[C@@H](C(=O)NC(C)C)CC1 [Example 237, Methyl 1-(cis-4-(isopropylcarbamoyl)cyclohexyl)-6-(piperidin-1-ylmethyl)-1H-benzo[d]imidazol-2-ylcarbamate]	0.1 to 1 µM
COC(=O)[C@H]1CC[C@@H](n2/c(=N/C(=O)c3ccccc3)[nH]c3cnc(OCCN4CCCCC4)cc32)CC1 [Example 20, cis-Methyl 4-((E)-2-(benzoylimino)-6-(2-(piperidin-1-yl)ethoxy)-2,3-dihydro-1H-imidazo[4,5-c]pyridin-1-yl)cyclohexanecarboxylate]	< 0.05 µM
O=C(/N=c1\[nH]c2ccc(CN3CCCCC3)cc2n1[C@H]1CC[C@@H](C(=O)NCC2CC2)CC1)c1ccc(F)cc1 [Example 32, (E)-N-(1-(cis-4-(Cyclopropylmethylcarbamoyl)cyclohexyl)-6-(piperidin-1-ylmethyl)-1H-benzo[d]imidazol-2(3H)-ylidene)-4-fluorobenzamide]	< 0.05 µM

The next lines start with the values.

IC50	SMILES
< 0.05 µM	CC(C)(O)C1CCN(Cc2ccc3[nH]/c(=N\C(=O)c4cccc(F)c4)n([C@H]4CC[C@@H](C(N)=O)CC4)c3c2)CC1 [Example 231]
< 0.05 µM	CC(C)NC(=O)[C@H]1CC[C@@H](n2/c(=N/C(=O)c3ccc(F)cc3)[nH]c3ccc(CN4CCn5c(nnc5C(C)(C)O)C4)cc32)CC1 [Example 230, (E)-4-Fluoro-N-(6-((3-(2-hydroxypropan-2-yl)-5,6-dihydro-[1,2,4]-triazolo[4,3-a]pyrazin-7(8H)-yl)methyl)-1-(cis-4-(isopropylcarbamoyl)cyclohexyl)-1H-benzo[d]imidazol-2(3H)-ylidene)benzamide]
< 0.05 µM	CCNC(=O)[C@H]1CC[C@@H](n2/c(=N/C(=O)c3ccc(F)cc3)[nH]c3ccc(CN4CCCCC4)cc32)CC1 [Example 11, (E)-N-(1-(cis-4-(Ethylcarbamoyl)cyclohexyl)-6-(piperidin-1-ylmethyl)-1H-benzo[d]imidazol-2(3H)-ylidene)-4-fluorobenzamide]
< 0.05 µM	CC(C)NC(=O)[C@H]1CC[C@@H](n2/c(=N/C(=O)c3cccc(C(F)(F)F)c3)[nH]c3ccc(CN4CCC(C(C)(C)O)CC4)cc32)CC1 [Example 147, (E)-N-(6-((4-(2-Hydroxypropan-2-yl)piperidin-1-yl)methyl)-1-(cis-4-(isopropylcarbamoyl)cyclohexyl)-1H-benzo[d]imidazol-2(3H)-ylidene)-3-(trifluoromethyl)benzamide]
< 0.05 µM	C[C@@H]1CNCCN1C(=O)[C@H]1CC[C@@H](n2/c(=N/C(=O)c3ccc(F)cc3)[nH]c3cnc(OCCN4CCCCC4)cc32)CC1 [Example 59, (E)-4-Fluoro-N-(1-(cis-4-((R)-2-methylpiperazine-1-carbonyl)cyclohexyl)-6-(2-(piperidin-1-yl)ethoxy)-1H-imidazo[4,5-c]pyridin-2(3H)-ylidene)benzamide]
< 0.05 µM	CC(C)(CO)NC(=O)[C@H]1CC[C@@H](n2/c(=N/C(=O)c3ccc(F)cc3)[nH]c3ccc(CN4CCC(C(C)(C)O)CC4)cc32)CC1 [Example 214, (E)-4-Fluoro-N-(1-(cis-4-(1-hydroxy-2-methylpropan-2-ylcarbamoyl)cyclohexyl)-6-((4-(2-hydroxypropan-2-yl)piperidin-1-yl)methyl)-1H-benzo[d]imidazol-2(3H)-ylidene)benzamide]
< 0.05 µM	CC(C)NC(=O)[C@H]1CC[C@@H](n2/c(=N/C(=O)c3ccc(F)c(F)c3)[nH]c3cnc(OCCN4CCCCC4)cc32)CC1 [Example 107, (E)-3,4-Difluoro-N-(1-(cis-4-(isopropylcarbamoyl)cyclohexyl)-6-(2-(piperidin-1-yl)ethoxy)-1H-imidazo[4,5-c]pyridin-2(3H)-ylidene)benzamide]
< 0.05 µM	CCOC(=O)[C@H]1CC[C@@H](n2/c(=N/C(=O)c3ccc(F)cc3)[nH]c3ccc(CN4CCCCC4)cc32)CC1 [Example 8, cis-Ethyl 4-((E)-2-(4-fluorobenzoylimino)-6-(piperidin-1-ylmethyl)-2,3-dihydro-1H-benzo[d]imidazol-1-yl)cyclohexanecarboxylate]
< 0.05 µM	CC(C)NC(=O)[C@H]1CC[C@@H](n2/c(=N/C(=O)c3cccc(F)c3)[nH]c3cnc(OCCN4CCCCC4)cc32)CC1 [Example 108, (E)-3-Fluoro-N-(1-(cis-4-(isopropylcarbamoyl)cyclohexyl)-6-(2-(piperidin-1-yl)ethoxy)-1H-imidazo[4,5-c]pyridin-2(3H)-ylidene)benzamide]
< 0.05 µM	CCOC(=O)[C@H]1CC[C@@H](n2/c(=N/C(=O)c3ccccc3)[nH]c3ccc(CO)cc32)CC1 [Example 7, cis-Ethyl 4-((E)-2-(benzoylimino)-6-(hydroxymethyl)-2,3-dihydro-1H-benzo[d]imidazol-1-yl)cyclohexanecarboxylate]
< 0.05 µM	CC(C)NC(=O)[C@H]1CC[C@@H](n2/c(=N/C(=O)c3ccc(F)cc3)[nH]c3cnc(Cl)cc32)CC1 [Example 160, (E)-N-(6-Chloro-1-(cis-4-(isopropylcarbamoyl)cyclohexyl)-1H-imidazo[4,5-c]pyridin-2(3H)-ylidene)-4-fluorobenzamide]
< 0.05 µM	COC(=O)[C@H]1CC[C@@H](n2/c(=N/C(=O)c3ccc(F)cc3)[nH]c3ccc(CO)cc32)CC1 [Example 2]
< 0.05 µM	CC(C)NC(=O)[C@H]1CC[C@@H](n2/c(=N/C(=O)c3ccc(F)cc3)[nH]c3ccc(CN4CCC(S(=O)(=O)O)CC4)cc32)CC1 [Example 181, 1-(((E)-2-(4-Fluorobenzoylimino)-3-(cis-4-(isopropylcarbamoyl)-cyclohexyl)-2,3-dihydro-1H-benzo[d]imidazol-5-yl)methyl)piperidine-4-sulfonic acid]
< 0.05 µM	CC(C)NC(=O)[C@H]1CC[C@@H](n2/c(=N/C(=O)c3ccc(F)cc3)[nH]c3cnc(OC4CCN(CC(=O)OC(C)(C)C)CC4)cc32)CC1 [Example 167, tert-Butyl 2-(4-((E)-2-(4-fluorobenzoylimino)-1-(cis-4-(isopropylcarbamoyl)cyclohexyl)-2,3-dihydro-1H-imidazo[4,5-c]pyridin-6-yloxy)piperidin-1-yl)acetate]
< 0.05 µM	CC(C)NC(=O)[C@H]1CC[C@@H](n2/c(=N/C(=O)c3ccc(F)cc3)[nH]c3ccc(Cn4cccn4)cc32)CC1 [Example 197, (E)-N-(6-((1H-Pyrazol-1-yl)methyl)-1-(cis-4-(isopropylcarbamoyl)cyclohexyl)-1H-benzo[d]imidazol-2(3H)-ylidene)-4-fluorobenzamide]
< 0.05 µM	CC(C)NC(=O)[C@H]1CC[C@@H](n2/c(=N/C(=O)c3ccc(F)cc3)[nH]c3ccc(CN4CCC(F)(F)CC4)cc32)CC1 [Example 191, (E)-N-(6-((4,4-Difluoropiperidin-1-yl)methyl)-1-(cis-4-(isopropylcarbamoyl)cyclohexyl)-1H-benzo[d]imidazol-2(3H)-ylidene)-4-fluorobenzamide]

same assay, conditions: 2 nM enzyme, ATP 40 μM (Km apparent), 90 minutes at room temperature; mean of three replicates

IC50	SMILES
0.05 to 0.1 µM	C=CCNS(=O)(=O)c1cccc(C(=O)/N=c2\[nH]c3cnc(OCCN4CCCCC4)cc3n2C2CCC(C(=O)NC)CC2)c1 [Example 245, (E)-3-(N-Allylsulfamoyl)-N-(1-((1R,4R)-4-(methylcarbamoyl)cyclohexyl)-6-(2-(piperidin-1-yl)ethoxy)-1H-imidazo[4,5-c]pyridin-2(3H)-ylidene)benzamide]

Reference: patent US9115127B2 (AMGEN INC., priority 2010, dated 2015)
